This note sets out measurements from US20240207410A1, “STABILIZED LIQUID COMPOSITIONS COMPRISING A LEVODOPA-TYROSINE CONJUGATE AND USES THEREOF” (NeuroDerm, Ltd., priority 2021, published 2024).

Format in all cases: physicochemical
Series [1] in a line: Evaluation of solution stability, pH 7.4, 25° C. The conditions noted are these: for HPLC purity difference: phosphate buffer pH 7.4, about 1 mg/mL, 25° C. As for the experimental part:
A phosphate buffer solution at pH 7.4 was added to each of the compounds to dissolve the each of the compounds, and when necessary, a NaOH solution was added to adjust the pH of the mixture to prepare a solution of about 1 mg/mL. After storing this solution at 25° C. for about 1 day, HPLC purity (area percentage, %) was measured. The HPLC purity of the solution immediately after the preparation, or the HPLC purity of the compound, was subtracted from the HPLC purity after storage at 25° C. for about 1 day to obtain a HPLC purity difference. […] In Tables 9-1 and 9-2, “LDP-Ala” represents L-Tyrosine,N-L-alanyl-3-hydroxy-(9CI) and has the following structural formula: […]

Series [2] can be described thus: Evaluation of solution stability, pH 7.4, 60° C. The conditions noted are these: phosphate buffer pH 7.4, about 1 mg/mL, after about 1 day. Here is the method:
A phosphate buffer solution at pH 7.4 was added to each of the compounds to dissolve the each of the compounds, and when necessary, a NaOH solution was added to adjust the pH of the mixture to prepare a solution of about 1 mg/mL. After storing this solution at 60° C. for about 1 day, HPLC purity (area percentage, %) was measured. The HPLC purity of the solution immediately after the preparation, or the HPLC purity of the compound, was subtracted from the HPLC purity after storage at 60° C. for about 1 day to obtain a HPLC purity difference.

A short description of series [3]: Evaluation of solubility in water. The conditions noted are these: for pH of filtrate: filtrate of the solubility test; for solubility at 24 h: thermodynamic from solid, water, shaken at 25° C. for 24 hours. As for the experimental part: Water was added to each of the compounds to prepare a suspension, which was shaken at 25° C. for 24 hours, and then, filtration through a filter was performed to obtain a filtrate. A compound concentration in the filtrate was quantified using HPLC to obtain the solubility. Further, the pH of the filtrate was measured.

Series [4] can be described thus: Long-term stability of 30% LD-Tyrosine/0.75% carbidopa at 2-8° C. Here is the method:
The formulation also included 0.5% ascorbic acid (Asc), 0.5% N-acetyl cysteine (NAC) and 0.3% Tween 80. The formulation was stored at 2-8° C. for the time indicated, and % recovery and % LD-Tyr-DKP formation (an impurity) were tested. Percent recovery remained high over time. The DKP impurity accumulated over time.

Values after ≈ are worked out from the molar mass of the structure shown. Where a SMILES comes first, the peptide text is derived from it. [ ]: non-standard residue; d: D form. pY = N[C@@H](Cc1ccc(OP(=O)(O)O)cc1)C(=O)O; Dopa = N[C@@H](Cc1ccc(O)c(O)c1)C(=O)O A value given as a limit tells only on which side of the number the result lay.

As for `C[C@H](N)C(=O)N[C@@H](Cc1ccc(O)c(O)c1)C(=O)O` [LDP-Ala, L-Tyrosine,N-L-alanyl-3-hydroxy-(9CI), reference compound] (H-Ala-[Dopa]-OH), the HPLC purity difference is reported as −3.80% in series [1] (after about 1 day) and −25.00% in series [2].

In the case of `N[C@@H](Cc1ccc(OP(=O)(O)O)cc1)C(=O)N[C@@H](Cc1ccc(O)c(O)c1)C(=O)O` [Example 10, (2S)-2-[[(2S)-2-amino-3-(4-phosphonooxyphenyl)propanoyl]amino]-3-(3,4-dihydroxyphenyl) propanoic acid] (H-[pY]-[Dopa]-OH), the HPLC purity difference in series [1] (after about 1 day) is −0.67%.

For `NCCCC[C@H](N)C(=O)N[C@@H](Cc1ccc(OP(=O)(O)O)c(O)c1)C(=O)O` [Example 8, (2S)-2-[[(2S)-2,6-diaminohexanoyl]amino]-3-(3-hydroxy-4-phosphonooxyphenyl) propanoic acid], in series [1], the “stability in aqueous solutions near neutrality” value is listed as “stable”. For the same molecule, the HPLC purity difference in series [1] (after 1.9 days) is 0.25 (after 1.9 days) %.

As a reminder, the solubility is the concentration that dissolves in the medium under given conditions. High values mean much dissolved substance, low ones little dissolved substance. Take `C[C@H](N)C(=O)N[C@@H](Cc1ccc(OP(=O)(O)O)c(O)c1)C(=O)O` [Example 1, (2S)-2-[[(2S)-2-aminopropanoyl]amino]-3-(3-hydroxy-4-phosphonooxyphenyl) propanoic acid]: the “stability in aqueous solutions near neutrality” value in series [1] is given as “stable”. Also, the HPLC purity difference in series [1] (after about 1 day) is −0.03%; in series [2] it was −1.61%. This molecule gave a pH of filtrate in series [3] of 2.6. Further, the solubility at 24 h in series [3] was 15.6 mg/mL (≈ 44.8 mM).

For the molecule `N[C@@H](Cc1ccc(O)c(O)c1)C(=O)N[C@@H](Cc1ccc(OP(=O)(O)O)c(O)c1)C(=O)O` [Example 2, (2S)-2-[[(2S)-2-amino-3-(3,4-dihydroxyphenyl)propanoyl]amino]-3-(3-hydroxy-4-phosphonooxyphenyl) propanoic acid], the HPLC purity difference in series [1] (after about 1 day) is −3.53%. In series [3], this molecule showed a pH of filtrate of 2.6 and a solubility at 24 h greater than 31.1 mg/mL.

Take `C[C@@](Cc1ccc(O)c(O)c1)(NN)C(=O)O` [Carbidopa, carbidopa, reference compound]: the “mg/mL (concentration in formulation)” value in series [4] (1 month) is 7.32 mg/mL; in series [4] (1 week), 7.36 mg/mL; in series [4] (2 months) it was 7.32 mg/mL; in series [4] (2 weeks), 7.30 mg/mL; in series [4] (3 months) it was 7.35 mg/mL; in series [4] (t = 0) it was 7.37 mg/mL.
